# Results from patent US8785436B2, “1,3-oxazines as BACE 1 and/or BACE2 inhibitors” (Hoffmann-La Roche Inc., priority 2011, dated 2014).
# Structures can show the parent of a compound that is named as a salt.
# Legend:
# [1] = target: T1, BACE1 (Homo sapiens, UniProt P56817); assay: Cellular Aβ-lowering assay b) (Abeta 40 AlphaLISA, HEK293 APP cells); assay type: cell-based; conditions: 18-20 hrs incubation, read-out: BACE1 cell act. Aβ40 IC50
# T1 construct: Human HEK293 cells which are stably transfected with a vector expressing a cDNA of the human APP wt gene (APP695); endogenous in cells; host or cells: HEK293 cells stably expressing human APP695 wt
# Experimental: Cellular Aβ-Lowering Assay:
# b) Alternatively, the Abeta 40 AlphaLISA Assay can be used. The HEK293 APP cells were seeded in 96 well Microtiter plates in cell culture medium (Iscove's, plus 10% (v/v) fetal bovine serum, penicillin/streptomycin) to about 80% confluency and the compounds were added at a 3× concentration in 1/3 volume of culture medium (final DMSO concentration was kept at 1% v/v). After 18-20 hrs incubation at 37° C. and 5% CO2 in a humidified incubator, the culture supernatants were harvested for the determination of Aβ 40 concentrations using Perkin-Elmer Human Amyloid beta 1-40 (high specificity) Kit (Cat# AL275C).
# In a Perkin-Elmer White Optiplate-384 (Cat#6007290), 2 ul culture supernatants were combined with 2 μl of a 10× AlphaLISA Anti-hAβ Acceptor beads+Biotinylated Antibody Anti-Aβ 1-40 Mix (50 μg/mL/5 nM). After 1 hour room temperature incubation, 16 μl of a 1.25× preparation of Streptavidin (SA) Donor beads (25 μg/mL) were added and incubated for 30 minutes in the Dark. Light Emission at 615 nm was then recorded using EnVision-Alpha Reader. Levels of Aβ 40 in the culture supernatants were calculated as percentage of maximum signal (cells treated with 1% DMSO without inhibitor). The IC50 values were calculated using the Excel XLfit software.
# [2] = target: T2, BACE2 (Rattus norvegicus, UniProt Q6IE75); assay: BACE inhibition by measuring cellular TMEM27 cleavage (INS-TMEM27 cells, ELISA); assay type: cell-based; conditions: INS-TMEM27 (Ins1e rat) cells, shed human TMEM27 by ELISA; read-out: BACE2 cell act. IC50
# T2 construct: endogenous cellular BACE2 in the Ins1e rat cell line; endogenous in cells; host or cells: INS-TMEM27 (INS1e-derived rat cell line with TetOn-inducible full-length hTMEM27)
# T2 sequence (Q6IE75 63-514): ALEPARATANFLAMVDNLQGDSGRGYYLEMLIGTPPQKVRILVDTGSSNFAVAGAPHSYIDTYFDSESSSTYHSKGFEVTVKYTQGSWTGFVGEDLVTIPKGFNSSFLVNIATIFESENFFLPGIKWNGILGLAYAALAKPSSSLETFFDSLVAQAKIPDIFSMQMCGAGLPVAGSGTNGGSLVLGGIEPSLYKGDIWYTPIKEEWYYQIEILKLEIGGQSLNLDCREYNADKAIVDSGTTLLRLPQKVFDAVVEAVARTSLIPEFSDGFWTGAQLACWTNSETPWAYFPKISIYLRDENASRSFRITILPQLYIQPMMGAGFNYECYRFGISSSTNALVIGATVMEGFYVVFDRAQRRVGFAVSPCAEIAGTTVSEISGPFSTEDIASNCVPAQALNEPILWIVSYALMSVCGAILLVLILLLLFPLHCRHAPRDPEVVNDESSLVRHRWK
# Description: Assay for BACE Inhibition by Measuring Cellular TMEM27 Cleavage:
# The assay uses the principle of inhibition of human TMEM27 cleavage by endogenous cellular BACE2 in the Ins1e rat cell line and shedding from the cell surface into the culture medium, followed by detection in an ELISA assay Inhibition of BACE2 prevents the cleavage and shedding in a dose-dependent manner.
# The stable cell line “INS-TMEM27” represents an INS1e-derived cell line with inducible expression (using the TetOn system) of full-length hTMEM27 in a doxycycline-dependent manner. The cells are cultured throughout the experiment in RPMI1640+Glutamax (Invitrogen) Penicillin/Streptomycin, 10% Fetal bovine serum, […], […], 100 micrograms/ml G418 and 100 microgram/ml hygromycin and are grown inadherent culture at 37° C. in a standard CO2 cell culture incubator.
# INS-TMEM27 cells are seeded in 96-well plates. After 2 days in culture, BACE2 inhibitor is added in a range of concentrations as required by the assay and after a further two hours, doxycycline is added to a final concentration of 500 ng/ml. The cells are incubated for a further 46 hours and the supernatant harvested for detection of shed TMEM27.
# An ELISA assay (using a pair of mouse anti-human-TMEM27 antibodies, raised against the extracellular domain of TMEM27) is used for detection of TMEM27 in the culture medium. An EC50 for BACE2 inhibition is calculated using the ELISA readout for each inhibitor concentration with standard curve-fitting software such as XLFit for the Excel spreadsheet program.
# T1 sequence (P56817 46-501): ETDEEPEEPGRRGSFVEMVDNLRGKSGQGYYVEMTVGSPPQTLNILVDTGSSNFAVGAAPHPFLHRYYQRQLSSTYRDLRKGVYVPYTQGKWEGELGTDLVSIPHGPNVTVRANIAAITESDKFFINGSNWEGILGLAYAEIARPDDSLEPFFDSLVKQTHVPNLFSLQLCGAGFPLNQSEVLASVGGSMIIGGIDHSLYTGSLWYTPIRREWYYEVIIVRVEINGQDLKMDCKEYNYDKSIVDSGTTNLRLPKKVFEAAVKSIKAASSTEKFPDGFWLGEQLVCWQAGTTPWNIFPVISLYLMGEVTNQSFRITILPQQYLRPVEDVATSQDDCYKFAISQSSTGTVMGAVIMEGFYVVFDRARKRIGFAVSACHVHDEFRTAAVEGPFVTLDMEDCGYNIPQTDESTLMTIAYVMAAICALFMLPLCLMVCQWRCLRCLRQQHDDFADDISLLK
IC50 [1] [nM],IC50 [2] [nM],Compound
420,–,"C[C@]1(C2CC2C(=O)Nc2cccc3cc(Cl)cnc23)N=C(N)OCC1(F)F (stereo in doubt) [Example 62, (1S,2S)-rel-2-((R)-2-Amino-5,5-difluoro-4-methyl-5,6-dihydro-4H-[1,3]oxazin-4-yl)-cyclopropanecarboxylic acid(3-chloro-quinolin-8-yl)-amide]"
502,–,"NC1=NC(c2cc(-c3cncc(Cl)c3)ccc2F)(C(F)F)CCO1 (stereo not drawn) [Example 53, 4-[5-(5-Chloro-pyridin-3-yl)-2-fluoro-phenyl]-4-difluoromethyl-5,6-dihydro-4H-[1,3]oxazin-2-ylamine]"
800,–,"C[C@]1(c2cc(NCc3cc(F)cc(F)c3)ccc2F)N=C(N)OC[C@@H]1F [Example 56, (4R,5R)-4-[5-(3,5-Difluoro-benzylamino)-2-fluoro-phenyl]-5-fluoro-4-methyl-5,6-dihydro-4H-[1,3]oxazin-2-ylamine]"
360,1350,"C[C@]1([C@@H]2C[C@H]2C(=O)Nc2cccc3cc(Cl)cnc23)N=C(N)OCC1(F)F [Example 63, (1R,2R)-((R)-2-Amino-5,5-difluoro-4-methyl-5,6-dihydro-4H-[1,3]oxazin-4-yl)-cyclopropanecarboxylic acid(3-chloro-quinolin-8-yl)-amide]"
1280,–,"C[C@]1(c2cc(-c3nc4ccc(Cl)cc4o3)c(F)cc2F)N=C(N)OCC1(F)F [Example 15, (R)-4-[5-(6-Chloro-benzooxazol-2-yl)-2,4-difluoro-phenyl]-5,5-difluoro-4-methyl-5,6-dihydro-4H-[1,3]oxazin-2-ylamine Hydrochloride]"
180,–,"C[C@]1([C@@H]2C[C@H]2C(=O)Nc2csc3cc(C#N)cnc23)N=C(N)OCC1(F)F [Example 65, (1R,2R)-2-((R)-2-Amino-5,5-difluoro-4-methyl-5,6-dihydro-4H-[1,3]oxazin-4-yl)-cyclopropanecarboxylic acid(6-cyano-thieno[3,2-b]pyridin-3-yl)-amide]"
3120,–,"C[C@]1(c2cccc(OCC3CC3)c2)N=C(N)OCC1(F)F [Example 59, (R)-4-(3-Cyclopropylmethoxy-phenyl)-5,5-difluoro-4-methyl-5,6-dihydro-4H-[1,3]oxazin-2-ylamine]"
380,–,"C[C@]1(c2cc(-c3cncnc3)c(F)cc2F)N=C(N)OCC1(F)F [Example 33, (R)-4-(2,4-Difluoro-5-pyrimidin-5-yl-phenyl)-5,5-difluoro-4-methyl-5,6-dihydro-4H-[1,3]oxazin-2-ylamine]"
4620,–,"C[C@]1(c2cnn(-c3cccc(C#N)c3)c2)N=C(N)OCC1(F)F [Example 60, 3-[4-((R)-2-Amino-5,5-difluoro-4-methyl-5,6-dihydro-4H-[1,3]oxazin-4-yl)-pyrazol-1-yl]-benzonitrile]"
1440,–,"C[C@]1(c2cnn(-c3cccc(Br)c3)c2)N=C(N)OCC1(F)F [Intermediate K7.1, (R)-4-[1-(3-bromo-phenyl)-1H-pyrazol-4-yl]-5,5-difluoro-4-methyl-5,6-dihydro-4H-[1,3]oxazin-2-ylamine]"
3700,–,"C[C@]1(c2cccc(OCC3CC3(F)F)c2)N=C(N)OCC1(F)F (mixture of isomers) [Example 57, (R)-4-[5-((RS)-2,2-Difluoro-cyclopropylmethoxy)-phenyl]-5,5-difluoro-4-methyl-5,6-dihydro-4H-[1,3]oxazin-2-ylamine]"
4170,2750,"CC1(C)OC(N)=N[C@](C)(c2cc(Nc3cccc(C(F)(F)F)n3)ccc2F)C1(F)F [Example 47, (R)-5,5-Difluoro-4-[2-fluoro-5-(6-trifluoromethyl-pyridin-2-ylamino)-phenyl]-4,6,6-trimethyl-5,6-dihydro-4H-[1,3]oxazin-2-ylamine]"
2880,–,"CC1(C)OC(N)=N[C@](C)(c2cc(-c3cc(C#N)ccc3Cl)ccc2F)C1(F)F [Example 52, 3′-((R)-2-Amino-5,5-difluoro-4,6,6-trimethyl-5,6-dihydro-4H-[1,3]oxazin-4-yl)-6-chloro-4′-fluoro-biphenyl-3-carbonitrile]"
2010,–,"C[C@]1(c2cccc(OCCC(F)(F)F)c2)N=C(N)OCC1(F)F [Example 58, (R)-5,5-Difluoro-4-methyl-4-[3-(3,3,3-trifluoro-propoxy)-phenyl]-5,6-dihydro-4H-[1,3]oxazin-2-ylamine]"
1210,–,"CC1(C)OC(N)=N[C@](C)(c2cc(NC3CCC(c4ccccc4)C3)ccc2F)C1(F)F (mixture of isomers) [Example 49, (R)-5,5-Difluoro-4-[2-fluoro-5-((1RS,3RS)-3-phenyl-cyclopentylamino)-phenyl]-4,6,6-trimethyl-5,6-dihydro-4H-[1,3]oxazin-2-ylamine]"
1450,–,"CCc1ccc(Cc2nc3ccc([C@@]4(C)N=C(N)OCC4(F)F)cc3[nH]2)cc1 [Example 55, (R)-4-[2-(4-Ethyl-benzyl)-3H-benzoimidazol-5-yl]-5,5-difluoro-4-methyl-5,6-dihydro-4H-[1,3]oxazin-2-ylamine]"
880,–,"C[C@]1(c2cc(-c3cncc(Cl)c3)c(F)cc2F)N=C(N)OCC1(F)F [Example 32, (R)-4-[5-(5-Chloro-pyridin-3-yl)-2,4-difluoro-phenyl]-5,5-difluoro-4-methyl-5,6-dihydro-4H-[1,3]oxazin-2-ylamine]"
720,–,"C#Cc1cccc(-n2cc([C@@]3(C)N=C(N)OCC3(F)F)cn2)c1 [Example 61, (R)-4-[1-(3-Ethynyl-phenyl)-1H-pyrazol-4-yl]-5,5-difluoro-4-methyl-5,6-dihydro-4H-[1,3]oxazin-2-ylamine]"
220,–,"NC1=N[C@@](c2cc(-c3cncc(Cl)c3)ccc2F)(C(F)F)CCO1 [Example 54B, (S)-4-[5-(5-Chloro-pyridin-3-yl)-2-fluoro-phenyl]-4-difluoromethyl-5,6-dihydro-4H-[1,3]oxazin-2-ylamine]"
